Patent US8334235B2, “Thiadiazolyloxyphenylamidines and use thereof as fungicides” (Bayer Cropscience AG, priority 2008, dated 2012)

Key:
log P (pH 2.3) = assay type: physicochemical
Puccinia triticina [1] = experiment: Puccinia triticina test (wheat)/curative; assay type: in vivo; conditions: 192 h, 500 ppm active substance, curative, evaluation 8 days after inoculation, read-out: degree of effectiveness
Procedure: (§1) • Solvent: 50 parts by weight of N,N-dimethylacetamide • Emulsifier: 1 part by weight of alkylaryl polyglycol ether (polyoxyethylene (16) tristearylphenyl ether)
(§2) To prepare a suitable active substance composition, 1 part by weight of active substance is mixed with the given amounts of solvent and emulsifier and the concentrate is diluted to the desired concentration using water.
For the testing of curative effectiveness, young plants are sprayed with a suspension of spores of Puccinia triticina. The plants remain in an incubation chamber at 20° C. and 100% relative humidity for 48 hours and are then sprayed with the active substance composition in the application rate given. The plants are placed in a greenhouse at a temperature of approximately 20° C. and a relative humidity of approximately 80%.
(§3) Evaluation is carried out 8 days after the inoculation. In this connection, 0% means a degree of effectiveness corresponding to that of the control, while a degree of effectiveness of 100% means that no infestation is observed.

Puccinia triticina [2] = experiment: Puccinia triticina test (wheat)/protective; assay type: in vivo; conditions: 192 h, 500 ppm active substance, protective, evaluation 8 days after inoculation, read-out: degree of effectiveness
Procedure: as §1, §2
For the testing of protective effectiveness, young plants are sprayed with the active substance composition in the application rate given. After the spray coating has been dried on, the plants are sprayed with a suspension of spores of Puccinia triticina. The plants remain in an incubation chamber at 20° C. and 100% relative humidity for 48 hours. The plants are placed in a greenhouse at a temperature of approximately 20° C. and a relative humidity of approximately 80%.
as §3

Alternaria solani = experiment: Alternaria test (tomato)/protective; assay type: in vivo; conditions: 72 h, 100 ppm active substance, protective, evaluation 3 days after inoculation, read-out: degree of effectiveness
Procedure: (§4) • Solvents: 24.5 parts by weight of acetone • 24.5 parts by weight of dimethylacetamide • Emulsifier: 1 part by weight of alkylaryl polyglycol ether (polyoxyethylene (16) tristearylphenyl ether)
To prepare a suitable active substance composition, 1 part by weight of substance is mixed with the given amounts of solvents and emulsifier and the concentrate is diluted to the desired concentration using water.
For the testing of protective effectiveness, young plants are sprayed with the active substance composition in the application rate given. After the spray coating has been dried on, the plants are inoculated with an aqueous suspension of spores of Alternaria solani. The plants are then placed in an incubation chamber at approximately 20° C. and 100% relative humidity.
Evaluation is carried out 3 days after the inoculation. In this connection, 0% means a degree of effectiveness corresponding to that of the control, while a degree of effectiveness of 100% means that no infestation is observed.

Sphaerotheca fuliginea = experiment: Sphaerotheca test (cucumber)/protective; assay type: in vivo; conditions: Podosphaera fuliginea, 168 h, 500 ppm active substance, protective, evaluation 7 days after inoculation, read-out: degree of effectiveness
Procedure: • Solvent: 49 parts by weight of N,N-dimethylformamide • Emulsifier: 1 part by weight of alkylaryl polyglycol ether (polyoxyethylene (16) tristearylphenyl ether) To prepare a suitable active substance composition, 1 part by weight of active substance is mixed with the given amounts of solvents and emulsifier and the concentrate is diluted to the desired concentration using water. For the testing of protective effectiveness, young cucumber plants are sprayed with the active substance composition in the application rate given. One day after treatment, the plants are inoculated with a suspension of spores of Sphaerotheca fuliginea. The plants are then placed in a greenhouse at 70% relative humidity and a temperature of 23° C. Evaluation is carried out 7 days after the inoculation. In this connection, 0% means a degree of effectiveness corresponding to that of the control, while a degree of effectiveness of 100% means that no infestation is observed.

[3] = system: bean rust pathogen Uromyces appendiculatus; experiment: Uromyces test (beans)/protective; assay type: in vivo; conditions: 240 h, 100 ppm active substance, protective, evaluation 10 days after inoculation, read-out: degree of effectiveness
Procedure: as §4
To prepare a suitable active substance composition, 1 part by weight of active substance is mixed with the given amounts of solvents and emulsifier and the concentrate is diluted to the desired concentration using water.
For the testing of protective effectiveness, young plants are sprayed with the active substance composition in the application rate given. After the spray coating has been dried on, the plants are inoculated with an aqueous suspension of the spores of the bean rust pathogen Uromyces appendiculatus and then remain in an incubation chamber at approximately 20° C. and 100% relative humidity for 1 day.
The plants are then placed in a greenhouse at approximately 21° C. and a relative humidity of approximately 90%.
Evaluation is carried out 10 days after the inoculation. In this connection, 0% means a degree of effectiveness corresponding to that of the control, while a degree of effectiveness of 100% means that no infestation is observed.

| SMILES | logP (log P (pH 2.3)) | pest or weed control at 500 ppm (Puccinia triticina [1]) | pest or weed control at 500 ppm (Puccinia triticina [2]) | pest or weed control at 100 ppm (Alternaria solani) | pest or weed control at 500 ppm (Sphaerotheca fuliginea) | pest or weed control at 100 ppm [3] |
| --- | --- | --- | --- | --- | --- | --- |
| Cc1cc(N)c(Cl)cc1Oc1nc(CCc2ccc(Cl)cc2)ns1 [2-Chloro-4-({3-[2-(4-chlorophenyl)ethyl]-1,2,4-thiadiazol-5-yl}oxy)-5-methylaniline] | 4.5 | – | – | – | – | – |
| Cc1cc(N)c(Cl)cc1Oc1nc(C2(Cl)CC2)ns1 [2-Chloro-4-{[3-(1-chlorocyclopropyl)-1,2,4-thiadiazol-5-yl]oxy}-5-methylaniline] | 3.5 | – | – | – | – | – |
| Cc1ccc(S(=O)(=O)c2nc(C3(Cl)CC3)ns2)cc1 [3-(1-Chlorocyclopropyl)-5-{(4-methylphenyl)sulphonyl}-1,2,4-thiadiazole] | 3.67 | – | – | – | – | – |
| Cc1ccc(S(=O)(=O)c2nc(CCc3ccc(Cl)cc3)ns2)cc1 [3-[2-(4-Chlorophenyl)ethyl]-5-[(4-methylphenyl)sulphonyl]-1,2,4-thiadiazole] | 4.62 | – | – | – | – | – |
| O=c1oc(CCc2ccc(Cl)cc2)ns1 [5-[2-(4-Chlorophenyl)ethyl]-1,3,4-oxathiazol-2-one] | 3.36 | – | – | – | – | – |
| CCN(C)/C=N/c1cc(C)c(Oc2nc(C(C)(C)C)ns2)cc1Cl [Compound 1, N′-{4-[(3-(tert-butyl)-1,2,4-thiadiazol-5-yl)oxy]-2-chloro-5-methylphenyl}-N-ethyl-N-methylimidoformamide] | – | ≥ 70% | ≥ 70% | ≥ 70% | ≥ 70% | ≥ 70% |
| CCN(C)/C=N/c1cc(C)c(Oc2nc(C(C)(C)C)ns2)cc1Br [Compound 2, N′-{2-bromo-4-[(3-(tert-butyl)-1,2,4-thiadiazol-5-yl)oxy]-5-methylphenyl}-N-ethyl-N-methylimidoformamide] | – | ≥ 70% | ≥ 70% | ≥ 70% | ≥ 70% | ≥ 70% |
| CCN(C)/C=N/c1cc(C)c(Oc2nc(C(C)c3ccc(Cl)cc3)ns2)cc1Cl (stereo not shown) [Compound 6] | – | ≥ 70% | ≥ 70% | – | ≥ 70% | ≥ 70% |
| Cc1cc(N=CN(C)C(C)C)c(Cl)cc1Oc1nc(C(C)c2ccc(Cl)cc2)ns1 (stereo not shown) [Compound 8, N′-[2-chloro-4-({3-[1-(4-chlorophenyl)ethyl]-1,2,4-thiadiazol-5-yl}oxy)-5-methylphenyl]-N-methyl-N-(propan-2-yl)imidoformamide] | – | – | – | – | ≥ 70% | ≥ 70% |
| Cc1cc(N=CN(C)C(C)C)c(Cl)cc1Oc1nc(C(C)(C)c2ccc(Cl)cc2)ns1 [Compound 13, N′-[2-chloro-4-({3-[2-(4-chlorophenyl)propan-2-yl]-1,2,4-thiadiazol-5-yl}oxy)-5-methylphenyl]-N-methyl-N-(propan-2-yl)imidoformamide] | – | ≥ 70% | ≥ 70% | ≥ 70% | ≥ 70% | – |
| CCN(C)/C=N/c1cc(C)c(Oc2nc(Cc3ccccc3)ns2)cc1Cl [Compound 14, N′-{4-[(3-benzyl-1,2,4-thiadiazol-5-yl)oxy]-2-chloro-5-methylphenyl}-N-ethyl-N-methylimidoformamide] | – | ≥ 70% | ≥ 70% | ≥ 70% | ≥ 70% | ≥ 70% |
| CCN(C)C=Nc1cc(C)c(Oc2nc(/C=C/c3ccc(F)cc3)ns2)cc1Cl [Compound 15, N′-[2-chloro-4-({3-[(E)-2-(4-fluorophenyl)ethenyl]-1,2,4-thiadiazol-5-yl}oxy)-5-methylphenyl]-N-ethyl-N-methylimidoformamide] | – | ≥ 70% | ≥ 70% | ≥ 70% | ≥ 70% | ≥ 70% |
| CCN(C)C=Nc1cc(C)c(Oc2nc(C3(c4ccc(Cl)cc4)CC3)ns2)cc1Cl [Compound 17, N′-[2-chloro-4-({3-[1-(4-chlorophenyl)cyclopropyl]-1,2,4-thiadiazol-5-yl}oxy)-5-methylphenyl]-N-ethyl-N-methylimidoformamide] | – | ≥ 70% | ≥ 70% | ≥ 70% | ≥ 70% | ≥ 70% |
| CCN(C)/C=N/c1cc(C)c(Oc2nc(Cc3ccc(Cl)cc3)ns2)cc1Cl [Compound 18, N′-(2-chloro-4-{[3-(4-chlorobenzyl)-1,2,4-thiadiazol-5-yl]oxy}-5-methylphenyl)-N-ethyl-N-methylimidoformamide] | – | ≥ 70% | ≥ 70% | – | ≥ 70% | ≥ 70% |
| CCCN(C)/C=N/c1cc(C)c(Oc2nc(C(C)(C)C)ns2)cc1Cl [Compound 24, N′-{4-[(3-(tert-butyl)-1,2,4-thiadiazol-5-yl)oxy]-2-chloro-5-methylphenyl}-N-methyl-N-propylimidoformamide] | – | ≥ 70% | ≥ 70% | ≥ 70% | ≥ 70% | – |
| CCN(C)C=Nc1cc(C)c(Oc2nc(C3(C)CC3(Cl)Cl)ns2)cc1Cl (stereo not shown) [Compound 32, N′-(2-chloro-4-{[3-(2,2-dichloro-1-methylcyclopropyl)-1,2,4-thiadiazol-5-yl]oxy}-5-methylphenyl)-N-ethyl-N-methylimidoformamide] | – | ≥ 70% | ≥ 70% | ≥ 70% | ≥ 70% | ≥ 70% |
| CCN(C)/C=N/c1cc(C)c(Oc2nc(Cc3ccc(Br)cc3)ns2)cc1Cl [Compound 33, N′-(4-{[3-(4-bromobenzyl)-1,2,4-thiadiazol-5-yl]oxy}-2-chloro-5-methylphenyl)-N-ethyl-N-methylimidoformamide] | – | ≥ 70% | ≥ 70% | ≥ 70% | ≥ 70% | – |
| CCN(C)/C=N/c1cc(C)c(Oc2nc(Cc3ccc(Cl)cc3Cl)ns2)cc1Cl [Compound 38, N′-(2-chloro-4-{[3-(2,4-dichlorobenzyl)-1,2,4-thiadiazol-5-yl]oxy}-5-methylphenyl)-N-ethyl-N-methylimidoformamide] | – | ≥ 70% | ≥ 70% | – | ≥ 70% | ≥ 70% |
| CCN(C)/C=N/c1cc(C)c(Oc2nc(C(C)(C)CCl)ns2)cc1Cl [Compound 39, N′-(2-chloro-4-{[3-(1-chloro-2-methylpropan-2-yl)-1,2,4-thiadiazol-5-yl]oxy}-5-methylphenyl)-N-ethyl-N-methylimidoformamide] | – | ≥ 70% | ≥ 70% | ≥ 70% | ≥ 70% | ≥ 70% |
| CCN(C)/C=N/c1cc(C)c(Oc2nc(Cc3ccc(F)cc3F)ns2)cc1Cl [Compound 40, N′-(2-chloro-4-{[3-(2,4-difluorobenzyl)-1,2,4-thiadiazol-5-yl]oxy}-5-methylphenyl)-N-ethyl-N-methylimidoformamide] | – | ≥ 70% | ≥ 70% | ≥ 70% | ≥ 70% | – |
